Test systems include A498 renal; A549 NSCLC; ACHN renal; EKVX NSCLC; HCT-116 colon; HL-60(TB) leukemia; HOP-92 NSCLC; IGROV1 ovarian; M14 melanoma; MCF7 breast; MDA-MB-231 breast; MDA-N; NCI-H226 lung; NCI-H23 lung; OVCAR-3 ovarian; OVCAR-4 ovarian; RPMI-8226 leukemia; SF-268 CNS; SNB-75 CNS; HCC-2998 colon.
Holding throughout (assay): growth of human tumour cells (NCI), 48 h

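48-hour exposure; five concentrations; linearly interpolated endpoints. TGI marks complete inhibition of growth.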 Bounds are passed on as bounds.

Take `COc1cc(CNc2ccc3nc4n(c(=O)c3c2)CCCCC4)cc(OC)c1OC`: the TGI in the experiment with A498 renal, in the experiment on A549 NSCLC, in the experiment on ACHN renal, in the experiment on EKVX NSCLC, with HCT-116 colon and in the experiment on HL-60(TB) leukemia was over 100 µM throughout. In addition, the TGI in the experiment with HOP-92 NSCLC, in the experiment on IGROV1 ovarian, in the experiment on M14 melanoma, in the experiment with MCF7 breast, in the experiment with MDA-MB-231 breast and with MDA-N was over 100 µM in each case. The TGI in the experiment with NCI-H226 lung, with NCI-H23 lung, in the experiment with OVCAR-3 ovarian, in the experiment on OVCAR-4 ovarian, in the experiment on RPMI-8226 leukemia and in the experiment with SF-268 CNS was over 100 µM each time. Besides, the TGI in the experiment on SNB-75 CNS is over 100 µM.

With `O=C(NC(CS)C(=O)O)c1cccc2c(=O)c3ccccc3[nH]c12` (configuration not stated), the TGI in the experiment on A498 renal, in the experiment with A549 NSCLC, in the experiment with ACHN renal, in the experiment on EKVX NSCLC, with HCT-116 colon and in the experiment on HL-60(TB) leukemia was over 100 µM throughout. The TGI in the experiment with HOP-92 NSCLC, in the experiment on IGROV1 ovarian, in the experiment with M14 melanoma, with MCF7 breast, in the experiment with MDA-MB-231 breast and in the experiment on MDA-N was over 100 µM each time. For the same compound, the TGI in the experiment with NCI-H226 lung, in the experiment with NCI-H23 lung, with OVCAR-3 ovarian, with OVCAR-4 ovarian, with RPMI-8226 leukemia and in the experiment with SF-268 CNS was over 100 µM throughout. This compound also had a TGI in the experiment with SNB-75 CNS of over 100 µM.

Consider `N#Cc1c(Cl)cccc1Oc1ccc(S(=O)(=O)/N=C(\NN)Nc2ccc(Cl)cc2)cc1`, for which the TGI was over 100 µM with A498 renal; over 100 µM with A549 NSCLC; over 100 µM in the experiment with ACHN renal; 68.3 µM in the experiment on EKVX NSCLC; 37.8 µM in the experiment with HCT-116 colon; 47.7 µM in the experiment with HL-60(TB) leukemia. Also, the TGI in the experiment with HOP-92 NSCLC was 54 µM; in the experiment with IGROV1 ovarian it was 43.4 µM; in the experiment on M14 melanoma, 52.1 µM; in the experiment on MCF7 breast, over 100 µM; in the experiment on MDA-MB-231 breast it was 67.2 µM; with MDA-N, 66.4 µM. Besides, the TGI turned out to be 60.9 µM in the experiment on NCI-H226 lung; 65.6 µM in the experiment with NCI-H23 lung; 40.2 µM with OVCAR-3 ovarian; 71 µM in the experiment on OVCAR-4 ovarian; 59.3 µM in the experiment with RPMI-8226 leukemia; 48.9 µM with SF-268 CNS. In the experiment on SNB-75 CNS, this compound gave a TGI of 54.7 µM.

Turning to `Cc1ccc(NN=NCCCCN)cc1`, the TGI in the experiment with A498 renal, with A549 NSCLC, with ACHN renal, with EKVX NSCLC, in the experiment with HCC-2998 colon and with HCT-116 colon was over 100 µM each time. The TGI in the experiment with HL-60(TB) leukemia, with HOP-92 NSCLC, in the experiment on IGROV1 ovarian, with M14 melanoma, with MCF7 breast and in the experiment on MDA-MB-231 breast was over 100 µM in each case. Moreover, the TGI in the experiment with MDA-N, in the experiment on NCI-H226 lung, with NCI-H23 lung, in the experiment with OVCAR-4 ovarian, in the experiment with RPMI-8226 leukemia and in the experiment with SF-268 CNS was over 100 µM in each case. In the experiment with SNB-75 CNS, this compound came in with a TGI of over 100 µM.

As for `CS/C1=C(\c2ccc(C)cc2)N(c2ccccc2)C(=O)C(=O)N(c2ccccc2)/C(c2ccc(C)cc2)=C(/SC)SS1`, the TGI with A498 renal, with ACHN renal, in the experiment with EKVX NSCLC, with HCC-2998 colon, in the experiment on HCT-116 colon and in the experiment with HL-60(TB) leukemia was over 100 µM each time. Moreover, the TGI with HOP-92 NSCLC, in the experiment on IGROV1 ovarian, in the experiment on M14 melanoma, in the experiment on MCF7 breast, in the experiment on MDA-MB-231 breast and with MDA-N was over 100 µM each time. Moreover, the TGI in the experiment on NCI-H23 lung, with OVCAR-3 ovarian, in the experiment on OVCAR-4 ovarian, with RPMI-8226 leukemia, in the experiment on SF-268 CNS and with SNB-75 CNS was over 100 µM each time.

In the case of `O=C1SS(=O)c2ccccc21` (configuration not stated), the TGI in the experiment on A498 renal, in the experiment with A549 NSCLC, with ACHN renal, with EKVX NSCLC, in the experiment on HCC-2998 colon and with HCT-116 colon was over 100 µM throughout. The TGI in the experiment on HL-60(TB) leukemia, in the experiment with HOP-92 NSCLC, in the experiment on IGROV1 ovarian, with M14 melanoma, in the experiment on MCF7 breast and in the experiment on MDA-MB-231 breast was over 100 µM each time. Also, the TGI with MDA-N, with NCI-H226 lung, in the experiment with NCI-H23 lung, with OVCAR-3 ovarian, in the experiment on OVCAR-4 ovarian and with RPMI-8226 leukemia was over 100 µM each time. The same compound showed a TGI in the experiment on SNB-75 CNS of over 100 µM.

Regarding `CCOP(=O)(CCCC(O)CNc1cc(Cl)nc(N)n1)OCC` (configuration not stated), the TGI in the experiment with A498 renal, with A549 NSCLC, in the experiment with ACHN renal, with EKVX NSCLC, in the experiment on HCC-2998 colon and in the experiment with HCT-116 colon was over 100 µM each time. Besides, the TGI in the experiment on HL-60(TB) leukemia, in the experiment on HOP-92 NSCLC, with IGROV1 ovarian, with MCF7 breast, in the experiment on MDA-MB-231 breast and with MDA-N was over 100 µM each time. The TGI in the experiment on NCI-H226 lung, with NCI-H23 lung, with OVCAR-3 ovarian, in the experiment on OVCAR-4 ovarian, in the experiment on RPMI-8226 leukemia and with SF-268 CNS was over 100 µM throughout. This compound showed a TGI in the experiment with SNB-75 CNS of over 100 µM.

The values above are taken from PubChem BioAssay (NCI).
